For assay [1], the system named is B16 mouse melanoma cells (B16-F1 cells, ATCC No. CRL-6323). Nature of the assay: Melanin formation-inhibiting test (extracellular melanin, 96-well plate method). The assay is classed as cell-based. The settings on record: for IC50: Mus musculus, extracellular melanin, B16-F1 cells, read-out: Melanin formation inhibition IC50; for Melanin formation inhibition, % Inhibition at 0.001%: test concentration 0.001%, 3 days, theophylline 0.5 mM. Here is the method:
Measurements were made by the 96-well plate method using […] mouse melanoma cells (B16-F1 cells, ATCC No. CRL-6323) purchased from Dainippon Pharmaceutical. The cells (1×10^4) were sowed into each well and cultured in 10% FCS- and 1% antibiotic-containing D-MEM for 24 hours (37° C., 5% CO2), the medium was then replaced with D-MEM supplemented with the test substance and theophylline (0.5 mM), and cultivation was further continued for 3 days. The solvent (ethanol) for the test substance was added to the medium in a final concentration of 1%. An equal volume of HEPES buffer (pH 6.8)/ethanol (9:1) was added to the culture supernatant obtained by centrifugation and the absorbance at 475 nm to 660 nm was measured on the microplate reader EL-340 (BIO-TEK INSTRUMENT), and the melanin formation-inhibiting activity was evaluated in terms of the amount of extracellular melanin.

Assay [2] is described as follows: DPPH radical-capturing activity. Conditions: concentration at which DPPH radical scavenging is 50%. From the text:
[table] […] The extent of activity was expressed in terms of DPPH Radial Scavenging (%) calculated according to the following formula: DPPH Radial Scavenging (%)=(A−B)/A×100 where A: absorbance without addition of sample, B: absorbance with addition of sample. […]
Background: Loss of DPPH colour is used to gauge radical scavenging.

≈ marks a conversion by molar mass, not a printed value.

As to `OC[C@H]1O[C@@H](Oc2ccc(O)cc2)[C@H](O)[C@@H](O)[C@@H]1O` [Arbutin], in assay [1], the IC50 (in general, the concentration that gives 50% inhibition) amounted to 12.1 µg/mL (≈ 44.4 µM) and the “Melanin formation inhibition, % Inhibition at 0.001%” value is listed as 32.4%.

`O=C1O[C@H]([C@@H](O)CO)C(O)=C1O` [Ascorbic acid]: the “DPPH radical scavenging IC50” value in assay [2] turned out to be 4.1 µg/mL.

Regarding `N[C@@H](CCC(=O)N[C@@H](CS)C(=O)NCC(=O)O)C(=O)O` [Glutathione], the “DPPH radical scavenging IC50” value in assay [2] was 13.5 µg/mL.

As for `O=c1cc(CO)occ1O` [Kojic acid], in assay [1], the IC50 was 12.9 µg/mL (≈ 90.8 µM) and the “Melanin formation inhibition, % Inhibition at 0.001%” value turned out to be 25.7%.

Values taken from patent US8101211B2, “Compositions for retarding skin aging” (Kabushiki Kaisha Yakult Honsha, priority 2000, dated 2012).
